Read-outs that look alike come from different tables or passages of the source.
How the values were obtained:
[1] = cited from earlier work
[2] = Double-blind randomized crossover pharmacokinetic study, single oral 900 μg vitamin D3 or 25(OH)D3; format: in vivo, human; details: for Cmax / Tmax / concentration at 14 days / half-life / AUC: both sexes, human, serum, po, single oral 900 μg, mean ± SEM; for Cmax / Tmax / half-life / AUC: 900 ug; for concentration at 14 days: 900 μg, read-out: Ctrough (trough level at day 14); for half-life: read-out: T1/2 (elimination half-life) (converted)
Protocol: The conclusions as presented herein are based on the following experiments: In a double-blinded cross-over study single high dosages (900 μg total in two soft gel capsules containing 450 μg) of either vitamin D3 or 25(OH)D3 were administered to vitamin D-deficient volunteers including healthy controls as well as subjects with a history of malabsorption. At the outset, the BMI was determined. Blood samples were then taken at baseline and at 2, 4, 6, 8, and 12 hours as well as 1, 2, 3, 7, and 14 days after administration (FIG. 2). All the samples were analyzed for their contents in vitamin D3 per se as well as 25(OH)D3. […] In addition, peak levels were more rapidly reached with 25(OH)D3 than with vitamin D3 (see FIG. 5). The immediate increase in serum 25(OH)D3 compared to the delayed increase observed with vitamin D3 supports the concept that 25(OH)D3 is being rapidly absorbed from the small intestine into the portal circulation, whereas vitamin D3 first needs to be incorporated into the chylomicrons which are absorbed into the lymphatic system.
The pharmacokinetic parameters of orally administered 25(OH)D3 and vitamin D3 (both provided for formulation in form of visually identical soft-gel pills) were studied based on the corresponding serum concentration-time curves in healthy adults and adults with a history of intestinal malabsorption (see FIG. 2). Cinical safety has been evaluated by monitoring serum calcium, phosphorus, parathyroid hormone (PTH) and 25(OH)D levels at the beginning and end of the study. Furthermore, the distribution of supplemented 25(OH)D3 (or 25(OH)D2) into adipose tissue and the role it is playing there was also studied.
Serum levels of calcium, phosphorus, albumin, creatinine and intact parathyroid hormone (iPTH) were determined at baseline and at the end of each 14-day pharmacokinetic study (see Table 4). The pharmacokinetic parameters have been determined by evaluating the serum concentration-time curves in patients with malabsorption syndrome and healthy controls (Tables 5 and 6).
The primary outcomes of the study are the serum pharmacokinetic parameters of 25(OH)D3 and vitamin D3 after a single oral administration of 900 μg of each in a double-blind randomized crossover study.
Adult patients (18 years and older) with a history of intestinal malabsorption (n=10) and healthy adult volunteers (n=10); (of both sexes and all ethnicities) has been recruited in this randomized double-blinded crossover study. The BMI has been determined and recorded at baseline. All subjects have been prescreened for 25(OH)D levels to include subjects with 25(OH)D<30 ng/mL. The subjects have been randomized to receive two oral doses of 450 μg taken simultaneously (total 900 μg) of either vitamin D3 or 25(OH)D3. Blood samples were taken at baseline and at 2, 4, 6, 8, 12 hours and days 1, 2, 3, 7 and 14. There was a two weeks washout period before the subject received in a double blinded manner, two oral doses of 450 μg taken simultaneously (total 900 μg) of either 25(OH)D3 or vitamin D3 (depending on which one they took in the randomization) any time after the 2 week washout. Blood samples were taken at baseline and at 2, 4, 6, 8, 12 hours and days 1, 2, 3, 7 and 14 days. Serum levels of calcium, phosphorus, albumin, creatinine, and intact parathyroid hormone (iPTH) were obtained at baseline and at day 14 for each arm (or within a reasonable time if the study participant was unable to come on the exact day).
The individuals participating in the study had, after signing a consent form, been randomized by a computer randomization chart in a blinded manner to receive two oral doses of 450 μg taken simultaneously (total 900 μg) of either vitamin D3 or 25(OH)D3. Blood samples have been taken at baseline and at 2, 4, 6, 8, 12 hours and days 1, 2, 3, 7 and 14. […]

[3] = vitamin D deficient postmenopausal women; single p.o. bolus of 140 μg of each substance; cited from earlier work
[4] = cited from earlier work; remark: listed apart in the source
[5] = single or multiple oral doses of 1250 μg vitamin D, or a dose of 900 μg 25(OH)D3; cited from earlier work
[6] = cited from earlier work; remark: listed apart in the source
[7] = healthy participants with higher BMI (N = 5)
[8] = healthy participants with lower BMI (N = 5)
[9] = patients with fat malabsorption (N = 6)

In the case of vitamin D, the “peak serum vitamin D concentration” value ([1]; single oral dose of 1.25 mg (50'000 IU), baseline less than 5 ng/mL) is given as “over 50 ng/mL”, the “time of fall of serum vitamin D to baseline levels” value ([1]; single oral dose of 1.25 mg) is given as at most 3 days and the “time of peak serum vitamin D concentration” value ([1]; single oral dose of 1.25 mg) is given as at most 12 h.

With `C=C1CC[C@H](O)C/C1=C/C=C1\CCC[C@]2(C)[C@@H]([C@H](C)CCCC(C)(C)O)CC[C@@H]12` [25-hydroxyvitamin D3] the “time at which the peak of the serum concentration is reached” value ([2]; FIG. 5, oral 900 μg) was about 8 h, the “bioavailability in subjects with a history of vitamin D/fat malabsorption” value ([2]; after administration of the respective product, FIGS. 3a and b) was “almost normal” and the Cmax ([2]; healthy participants (N = 10)) was 23.1 ± 4.6 ng/mL. It also gave a Tmax ([2]; healthy participants (N = 10)) of 11.2 ± 4.1 h, a concentration at 14 days ([2]; healthy participants (N = 10)) of 6.1 ± 1.3 ng/mL and a half-life ([2]; healthy participants (N = 10)) of 60.6 ± 7.9 h. The AUC ([2]; healthy participants (N = 10), serum level of the administered substance) was 3130 ± 545 ng·h/mL, the AUC [2, 7] was 2620 ± 855 ng·h/mL and the Cmax [2, 7] was 21.4 ± 8 ng/mL. It also gave a Tmax [2, 7] of 15.2 ± 8.2 h, a concentration at 14 days [2, 7] of 4.6 ± 1.4 ng/mL and a half-life [2, 7] of 55 ± 10.7 h. The AUC [2, 8] was 3630 ± 690 ng·h/mL, the Cmax [2, 8] was 24.8 ± 5.5 ng/mL and the Tmax [2, 8] was 7.2 ± 0.5 h. The concentration at 14 days [2, 8] was 7.6 ± 2.1 ng/mL, the half-life [2, 8] was 66.2 ± 12.3 h and the Cmax [2, 9] was 23.2 ± 6.8 ng/mL. It also gave a Tmax [2, 9] of 5.3 ± 0.7 h, a concentration at 14 days [2, 9] of 6.7 ± 1.5 ng/mL and a half-life [2, 9] of 65.7 ± 29.9 h. For the same compound, the AUC ([2]; patients with fat malabsorption (N = 6), serum level of the administered substance) was 2670 ± 735 ng·h/mL, the “Cmax increase over baseline of 25(OH)D3” value [3] was 24.7 ng/mL and the “increase of 25(OH)D by 24 hours” value ([4]; after bolus intravenous dose) was 40 ng/mL. For the same compound, the toxicity ([4]; bolus intravenous 448 μg or 900 μg slow release) was “No toxicity was observed”, the “increase of peak concentration of 25(OH)D above baseline” value ([4]; bolus intravenous dose of 448 μg) was “approximately 110 ng/mL” and the “toxicity in pharmacokinetic study” value ([4]; oral single dose of 900 μg) was “did not show any untoward toxicity”. The reports of toxicity [5] was “toxicity has never been reported” and the “power of oral calcifediol relative to oral cholecalciferol (vitamin D3)” value [6] was “three- to five-time more powerful”.

For `C=C1CC[C@H](O)C/C1=C/C=C1\CCC[C@]2(C)[C@@H]([C@H](C)/C=C/[C@H](C)C(C)C)CC[C@@H]12` [vitamin D2, ergocalciferol], the “serum vitamin D concentration reached” value ([1]; five of the seven patients with intestinal fat malabsorption, oral 50,000 IU) is listed as at most 10 ng/mL.

From US20230248744A1, “25-HYDROXYVITAMIN D2 AND/OR D3 FOR USE IN OBESITY” (CARBOGEN AMCIS B.V., priority 2020, published 2023)
